According to patent publication US8058475B2, “Substituted cyclohexylmethyl compounds” (Gruenenthal GmbH, priority 2005, dated 2011):
Structures can show the parent of a compound that is named as a salt. Where two headings read alike, the source gives them in different places.

Columns and labels:
Serotonin (5HT) reuptake = molecular target: T1, Serotonin (5HT) reuptake (Rattus norvegicus, UniProt P31652); experiment: Serotonin (5HT) reuptake inhibition in rat brain synaptosomes (P2 fraction); type: biochemical; conditions: read-out: Serotonin reuptake, % inhibition [10 μM]
T1 construct: synaptosomes are freshly isolated from areas of rat brain; from tissue; host or cells: rat brain synaptosomes (P2 fraction)
From the text: (§1) Noradrenaline (NA) and Serotonin (5HT) Reuptake Inhibition
(§2) In order to be able to carry out these studies in vitro, synaptosomes are freshly isolated from areas of rat brain. A so-called “P2” fraction prepared by the method of Gray and Whittaker (E. G. Gray and V. P. Whittaker (1962) J. Anat. 76, 79-88) is used in each case. For the NA uptake, these vesicular particles are isolated from the hypothalamus of male rat brains.
(§3) A detailed description of the method will be found in the literature (M. Ch. Frink, H. H. Hennies, W. Englberger, M. Haurand and B. Wilffert (1996) Arzneim.-Forsch./Drug Res. 46 (III), 11, 1029-1036).

[1] = molecular target: T2, Noradrenaline (NA) reuptake (Rattus norvegicus, UniProt Q63380); experiment: Noradrenaline (NA) reuptake inhibition in rat brain synaptosomes (hypothalamus, P2 fraction); type: biochemical; conditions: read-out: NA reuptake, % inhibition [10 μM]
T2 construct: synaptosomes are freshly isolated from areas of rat brain; from tissue; host or cells: rat hypothalamus synaptosomes (P2 fraction)
From the text: as §1, §2, §3

human μ-opiate receptor = human μ-opiate receptor (Homo sapiens, UniProt P35372); experiment: Affinity for the human μ-opiate receptor ([3H]-naloxone displacement, SPA, CHO-K1 membrane preparation); type: binding; conditions: for inhibition at 1 µM: read-out: μ-Opioid receptor, % inhibition [1 μM]; for Ki: read-out: μ-Opioid receptor, Ki
[2] = 1 μM test substance, inhibition of specific [3H]-naloxone binding

T1 sequence (P31652 whole entry): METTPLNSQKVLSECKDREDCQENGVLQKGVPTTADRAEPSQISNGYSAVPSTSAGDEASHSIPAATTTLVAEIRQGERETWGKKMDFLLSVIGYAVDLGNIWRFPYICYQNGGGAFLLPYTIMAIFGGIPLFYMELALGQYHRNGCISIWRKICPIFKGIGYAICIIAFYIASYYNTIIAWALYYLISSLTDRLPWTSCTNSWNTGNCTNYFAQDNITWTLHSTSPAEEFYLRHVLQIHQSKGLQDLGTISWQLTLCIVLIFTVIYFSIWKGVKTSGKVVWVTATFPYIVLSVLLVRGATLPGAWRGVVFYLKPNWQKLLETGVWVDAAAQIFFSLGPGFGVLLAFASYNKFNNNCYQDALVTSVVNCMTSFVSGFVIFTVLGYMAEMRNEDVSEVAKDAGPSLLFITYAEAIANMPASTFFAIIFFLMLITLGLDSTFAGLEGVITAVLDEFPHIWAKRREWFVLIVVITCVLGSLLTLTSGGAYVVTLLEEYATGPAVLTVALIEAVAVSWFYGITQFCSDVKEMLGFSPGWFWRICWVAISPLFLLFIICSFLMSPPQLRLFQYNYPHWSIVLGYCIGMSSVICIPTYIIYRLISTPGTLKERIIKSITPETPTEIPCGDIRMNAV
T2 sequence (Q63380 1-617): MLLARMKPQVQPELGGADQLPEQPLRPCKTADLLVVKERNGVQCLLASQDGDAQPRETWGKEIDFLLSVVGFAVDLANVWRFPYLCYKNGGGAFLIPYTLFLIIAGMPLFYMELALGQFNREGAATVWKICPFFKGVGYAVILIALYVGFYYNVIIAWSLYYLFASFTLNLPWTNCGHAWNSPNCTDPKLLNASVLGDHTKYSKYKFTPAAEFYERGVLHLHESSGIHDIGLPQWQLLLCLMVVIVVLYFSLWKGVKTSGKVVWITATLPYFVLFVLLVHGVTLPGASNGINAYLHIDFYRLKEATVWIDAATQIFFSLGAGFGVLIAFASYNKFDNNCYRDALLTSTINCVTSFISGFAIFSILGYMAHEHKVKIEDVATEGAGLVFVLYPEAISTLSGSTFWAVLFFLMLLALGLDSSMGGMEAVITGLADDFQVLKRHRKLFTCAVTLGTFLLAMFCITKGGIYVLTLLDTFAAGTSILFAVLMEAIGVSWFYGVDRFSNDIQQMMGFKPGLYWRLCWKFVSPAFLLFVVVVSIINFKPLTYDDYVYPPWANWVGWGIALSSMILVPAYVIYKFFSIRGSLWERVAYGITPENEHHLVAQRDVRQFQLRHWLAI
Sequence of human μ-opiate receptor (P35372 whole entry): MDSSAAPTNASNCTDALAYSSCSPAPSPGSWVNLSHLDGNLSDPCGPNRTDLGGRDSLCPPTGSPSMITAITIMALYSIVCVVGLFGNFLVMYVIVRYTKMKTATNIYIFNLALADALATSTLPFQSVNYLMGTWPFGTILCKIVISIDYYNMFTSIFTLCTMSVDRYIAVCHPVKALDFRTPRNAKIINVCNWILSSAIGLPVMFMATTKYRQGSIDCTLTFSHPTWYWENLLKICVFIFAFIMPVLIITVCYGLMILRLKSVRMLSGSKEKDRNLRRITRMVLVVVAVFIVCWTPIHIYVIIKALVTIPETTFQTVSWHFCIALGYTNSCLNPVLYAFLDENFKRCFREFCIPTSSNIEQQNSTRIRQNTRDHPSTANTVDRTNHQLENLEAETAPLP

| SMILES | inhibition at 10 µM (Serotonin (5HT) reuptake) [%] | inhibition at 10 µM [1] [%] | inhibition at 1 µM (human μ-opiate receptor) [%] | Ki (human μ-opiate receptor) [nM] | other results |
| --- | --- | --- | --- | --- | --- |
| CN(C)C(CCc1ccccc1)C1CCC(CN)CC1 (centres unmarked) [compound 45, [1-(4-aminomethyl-cyclohexyl)-3-phenyl-propyl]-dimethylamine] | 90 | 96 |  |  |  |
| CN(C)C(c1cccc(F)c1)C1CCC(CC=O)CC1 (centres unmarked) [compound 52, {4-[Dimethylamino-(3-fluorophenyl)-methyl]-cyclohexyl}-acetaldehyde] | 94 | 96 |  |  |  |
| CN(C)C(CCc1ccccc1)C1CCC(CC=O)CC1 (centres unmarked) [compound 70, [4-(1-Dimethylamino-3-phenyl-propyl)-cyclohexyl]-acetaldehyde] | 70 | 93 |  |  |  |
| CCOC(=O)C=CC1CCC(C(CCc2ccccc2)N(C)C)CC1 (centres unmarked) [compound 141, 3-[4-(1-dimethylamino-3-phenyl-propyl)-cyclohexyl]-acrylic acid ethyl ester] | 83 | 98 |  |  |  |
| CN(C)C(c1ccccc1)C1CCC(NC(=O)c2nc(-c3cccs3)no2)CC1 (centres unmarked) [compound 497, 3-thiophen-2-yl-[1,2,4]oxadiazole-5-carboxylic acid [4-(dimethylamino-phenyl-methyl)-cyclohexyl]-amide] |  | 101 |  |  |  |
| CN(C)C(c1ccc(F)cc1)C1CCC(CCN)CC1 (centres unmarked) [compound 51, 2-{4-[dimethylamino-(4-fluorophenyl)-methyl]-cyclohexyl}-ethylamine] | 97 | 98 |  |  |  |
| CN(C)C(c1ccc(Cl)cc1)C1CCC(C=O)CC1 (centres unmarked) [compound 37, 4-[(4-Chloro-phenyl)-dimethylamino-methyl]-cyclohexane-carbaldehyde] | 75 | 97 |  |  |  |
| Cc1ccc(C(C2CCC(=CC(=O)NCCc3ccccc3)CC2)N2CCCCC2)cc1 (centres unmarked) [compound 494, N-phenethyl-2-(4-(piperidin-1-yl(p-tolyl)methyl)cyclohexylidene)acetamide] | 40 | 81 |  |  |  |
| O=C(C=C1CCC(C(Cc2ccccc2)N2CCCC2)CC1)NCc1ccccn1 (centres unmarked) [compound 495, 2-(4-(2-phenyl-1-(pyrrolidin-1-yl)ethyl)cyclohexylidene)-N-(pyridin-2-ylmethyl)acetamide] | 7 | 16 |  |  |  |
| COc1ccc(NC(=O)C=C2CCC(C(c3ccc(C)cc3)N3CCCCC3)CC2)cc1 (centres unmarked) [compound 493, N-(4-methoxyphenyl)-2-(4-(piperidin-1-yl(p-tolyl)methyl)cyclohexylidene)-acetamide] | 38 | 27 |  |  |  |
| CN(C)C(c1ccccc1)C1CCC(O)(Cc2ccccc2)CC1 (centres unmarked) [compound 147, 1-benzyl-4-((dimethylamino)(phenyl)methyl)cyclohexanol hydrochloride] |  | 12 |  |  |  |
| CN(C)C(CCc1ccccc1)C1CCC(N)CC1 (centres unmarked) [compound 27, 4-(1-dimethylamino-3-phenyl-propyl)-cyclohexylamine] | 78 | 95 |  |  |  |
| Cc1noc(C(=O)NCCC2CCC(C(c3ccccc3)N(C)C)CC2)n1 (centres unmarked) [compound 498, 3-methyl-[1,2,4]oxadiazole-5-carboxylic acid {2-[4-(dimethylamino-phenyl-methyl)-cyclohexyl]-ethyl}-amide] |  | 99 |  |  |  |
| CCOC(=O)CCC1CCC(C(CCc2ccccc2)N(C)C)CC1 (centres unmarked) [compound 142, 3-[4-(1-dimethylamino-3-phenyl-propyl)-cyclohexyl]-propionic acid ethyl ester] | 84 | 99 |  |  |  |
| Cc1ccc(C(C2CCC(=CC(=O)N(C)Cc3ccccc3)CC2)N2CCCCC2)cc1 (centres unmarked) [compound 496, N-benzyl-N-methyl-2-(4-(piperidin-1-yl(p-tolyl)methyl)cyclohexylidene)-acetamide] | 18 | 26 |  |  |  |
| CN(C)C(c1cccc(F)c1)C1CCC(NC(=O)c2nc(CC3CC3)no2)CC1 (centres unmarked) [compound 500, 3-cyclopropylmethyl-[1,2,4]oxadiazole-5-carboxylic acid {4-[dimethylamino-(3-fluoro-phenyl)-methyl]-cyclohexyl}-amide] |  | 101 |  |  |  |
| COCc1noc(C(=O)NCCC2CCC(C(CCc3ccccc3)N(C)C)CC2)n1 (centres unmarked) [compound 501, 3-methoxymethyl-[1,2,4]oxadiazole-5-carboxylic acid {2-[4-(1-dimethylamino-3-phenyl-propyl)-cyclohexyl]-ethyl}-amide] |  | 106 |  |  |  |

| SMILES | inhibition at 10 µM (Serotonin (5HT) reuptake) [%] | inhibition at 10 µM [1] [%] | inhibition at 1 µM (human μ-opiate receptor) [%] | Ki (human μ-opiate receptor) [nM] | other results |
| --- | --- | --- | --- | --- | --- |
| CN(C)C(c1cccc(F)c1)C1CCC(NC(=O)c2nc(-c3ccccc3)no2)CC1 (centres unmarked) [compound 499, 3-phenyl-[1,2,4]oxadiazole-5-carboxylic acid {4-[dimethylamino-(3-fluoro-phenyl)-methyl]-cyclohexyl}-amide] |  | 103 |  |  |  |
| CN(C)C(c1ccccc1)C1CCC(NC(=O)C2CCCCC2)CC1 (centres unmarked) [compound 272, cyclohexanecarboxylic acid [4-(dimethylamino-phenyl-methyl)-cyclohexyl]-amide] |  |  | 75 | 90 |  |
| CCSc1ncccc1C(=O)NC1CCC(C(c2cccs2)N(C)C)CC1 (centres unmarked) [compound 213, N-[4-(dimethylamino-thiophen-2-yl-methyl)-cyclohexyl]-2-ethylsulfanyl-nicotinamide] |  |  | 91 | 96 |  |
| CN(C)C(c1cccs1)C1CCC(CCNC(=O)c2ccccc2F)CC1 (centres unmarked) [compound 428, N-{2-[4-(dimethylamino-thiophen-2-yl-methyl)-cyclohexyl]-ethyl}-2-fluoro-benzamide] |  |  | 97 | 5.4 |  |
| CSc1ncccc1C(=O)NCCC1CCC(C(c2ccccc2)N(C)C)CC1 (centres unmarked) [compound 466, N-{2-[4-(dimethylamino-phenyl-methyl)-cyclohexyl]-ethyl}-2-methylsulfanyl-nicotinamide] |  |  | 86 | 41 |  |
| CN(C)C(c1cccc(F)c1)C1CCC(O)(c2ccc(Cl)c(C(F)(F)F)c2)CC1 (centres unmarked) [compound 157, 1-(4-chloro-3-trifluoromethyl-phenyl)-4-[dimethylamino-(3-fluoro-phenyl)-methyl]-cyclohexanol] |  |  |  |  | inhibition at 1 µM (human μ-opiate receptor; [2]): 72% |
| CC(Oc1ccccc1)C(=O)NC1CCC(C(c2cccc(F)c2)N(C)C)CC1 (single isomer, unassigned) [compound 215, N-{4-[dimethylamino-(3-fluoro-phenyl)-methyl]-cyclohexyl}-2-phenoxy-propionamide] |  |  | 90 | 34 |  |
| Cc1cc(C(=O)NCC2CCC(C(c3ccccc3)N(C)C)CC2)no1 (centres unmarked) [compound 379, 5-methyl-isoxazole-3-carboxylic acid [4-(dimethylamino-phenyl-methyl)-cyclohexylmethyl]-amide] |  |  | 83 |  |  |
| Cc1oc(-c2ccccc2)cc1C(=O)NCC1CCC(C(c2cccc(F)c2)N(C)C)CC1 (centres unmarked) [compound 353, 2-methyl-5-phenyl-furan-3-carboxylic acid {4-[dimethylamino-(3-fluoro-phenyl)-methyl]-cyclohexylmethyl}-amide] |  |  | 87 | 96 |  |
| COc1cccc(OC)c1C(=O)NCC1CCC(C(c2cccs2)N(C)C)CC1 (centres unmarked) [compound 300, N-[4-(dimethylamino-thiophen-2-yl-methyl)-cyclohexylmethyl]-2,6-dimethoxy-benzamide] |  |  | 99 | 1.4 |  |
| CN(C)C(c1ccccc1)C1CCC(NC(=O)c2cccs2)CC1 (single isomer, unassigned) [compound 249, thiophene-2-carboxylic acid [4-(dimethylamino-phenyl-methyl)-cyclohexyl]-amide] |  |  |  | 64 | μ-Opioid receptor, % inhibition [1 μM] (human μ-opiate receptor; 1 µM): 81% |
| CN(C)C(c1cccc(F)c1)C1CCC(CNC(=O)c2csc3ccccc23)CC1 (centres unmarked) [compound 314, benzo[b]thiophene-3-carboxylic acid {4-[dimethylamino-(3-fluoro-phenyl)-methyl]-cyclohexylmethyl}-amide] |  |  | 97 | 4.2 |  |
| CCCCCCC1(O)CCC(C(c2ccc(Cl)cc2)N(C)C)CC1 (centres unmarked) [compound 168, 4-[(4-chloro-phenyl)-dimethylamino-methyl]-1-hexyl-cyclohexanol] |  |  |  |  | inhibition at 1 µM (human μ-opiate receptor; [2]): 58% |
| CCCc1ccc(C(=O)NCCC2CCC(C(c3cccs3)N(C)C)CC2)cc1 (centres unmarked) [compound 443, N-{2-[4-(dimethylamino-thiophen-2-yl-methyl)-cyclohexyl]-ethyl}-4-propyl-benzamide] |  |  | 96 | 40 |  |
| Cc1ccc(C(=O)NC2CCC(C(c3ccccc3)N(C)C)CC2)cc1 (centres unmarked) [compound 242, N-[4-(dimethylamino-phenyl-methyl)-cyclohexyl]-4-methyl-benzamide] |  |  | 82 | 46 |  |
| CN(C)C(c1ccc(F)cc1)C1CCC(NC(=O)c2cccc(Br)c2)CC1 (centres unmarked) [compound 263, 3-bromo-N-{4-[dimethylamino-(4-fluoro-phenyl)-methyl]-cyclohexyl}-benzamide] |  |  | 78 | 28 |  |
| CN(C)C(c1ccc(Cl)cc1)C1CCC(CNC(=O)CC(C)(C)C)CC1 (centres unmarked) [compound 309, N-{4-[(4-chloro-phenyl)-dimethylamino-methyl]-cyclohexylmethyl}-3,3-dimethyl-butyramide] |  |  | 98 | 5.6 |  |
